# From article PMC6680510, “Benzotriazine Di-Oxide Prodrugs for Exploiting Hypoxia and Low Extracellular pH in Tumors” (Molecules, 2019)
# “And” between values parts separate entries of the source, which are not always exact repeats. Equal values may be shown once. Read-outs that look alike come from different tables or passages of the source.
# What was measured:
# [1] = One-electron reduction potentials by pulse radiolysis; format: physicochemical; settings: pH 7.0, equilibrium with redox indicator shown in square brackets
# Method: One-electron reduction potentials (E^0′) were determined from the redox equilibria with methylviologen, MV^2+, (E^0′ = […], [34]), dimethyldiquat, V21^2+, (E^0′ = […], [35]), or triquat, TQ^2+, (E^0′ = −548 ± 7 mV [34]). […] Substituting the 3-alkanoic sidechain with the 3-aminoalkanoic sidechain on the BTO 1,4-dioxide lowers the E^0′, as does the addition of the cyclopentane ring. The combined effect is seen for 10a, where the E^0′ value is −565 mV, which is expected to be too low for significant bioreduction under hypoxia.
# (§1) Time-resolved optical absorption and kinetic studies were carried out using the University of Auckland’s 4 MeV linear accelerator, which has been previously described. The one-electron reduction potentials of the compounds (A) and couple E^0′(A/A^−), versus normal hydrogen electrode, were determined at pH 7.0 (2.5 mM phosphate) by establishing redox equilibria within 50 μs between three mixtures of one-electron reduced A and the viologen reference compounds, MV^2+, TQ^2+ and V21^2+. The determined equilibrium constants were used to calculate the ΔE values using the Nernst equation, correcting for ionic strength effects, as described in the literature.
# [2] = Pulse radiolysis of the radical anion (pKa, decay and oxidation kinetics); format: physicochemical
# Text: The free radical chemistry of 7a was investigated by pulse radiolysis and electron paramagnetic resonance (EPR). […] The radical anion decayed slowly under anoxia at pH 7 with mixed kinetics (first-order rate constant of 78 ± 4 s^−1, second-order rate constant of 3.8 ± 0.7 × 10^7 M^−1 s^−1, Figure S3), broadly similar to SN30000 [24]. The second-order rate constant for oxidation of the radical anion of 7a by O2, 5.39 ± 0.40 × 10^6 M^−1 s^−1 (Figure S4), is consistent with the known dependence on E^0′ for BTOs.
# as §1
# Molecules 2019, 24, x FOR PEER REVIEW 3 of 8
# Figure S2. Effect of pH on the change in radical absorption at 490 nm upon one-electron reduction of 7a ([…]) by the CO2.- radical anion following pulse radiolysis (3 Gy in 200 ns) of N2O-saturated solutions containing sodium formate (0.1 M) and buffers (10 mM). Data points, obtained ca. 20 ms […]
# Figure S3. […]
# dependence on increasing radiation dose (radical concentration) of the reciprocal of the first half-life of decay of the radical anion of 7a measured at 490 nm. […]
# Figure S4. Dependence of the first-order rate constant measured at 490 nm for the decay of the radical anion of 7a at pH 7.0, k, on the concentration of O2 in solution following pulse radiolysis (10 Gy in 200 ns). […] The second order rate constant, kO2, calculated from the gradient
# SiHa cells [3] = assay: IC50 assay (inhibition of proliferation, 4 h exposure, SRB); settings: SiHa; for IC50: Homo sapiens, 4 h
# Summary of the method: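 Cells exposed to compound for 4 h in titrated medium, then washed and regrown 5 days under standard conditions (oxia, pHe 7.4). Growth read by sulforhodamine B staining; IC50 from 4-parameter logistic regression of duplicate cultures.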
# FaDu cells = assay: as above; format: cell-based; settings: for IC50: Homo sapiens, 4 h
# Method: Cells were seeded in 96-well plates (SiHa or FaDu 1500 cells/well, UT-SCC-74B 800 cells/well) in 100 μL. After incubation for 2 h, the drugs were added in 50 μL of the same titrated medium at 3× the final concentration to duplicate the wells. After a further 4 h the plates were checked for drug precipitation using a phase contrast microscope, then drugs were removed by aspirating and washing with the standard (pH 7.4) medium, then aspirating again and adding 150 μL of the medium. Cultures were then grown for 5 days before staining with sulphorhodamine B and measuring absorbance, with the estimation of IC50 values using 4-parameter logistic regression, as previously carried out [85].
# The medium and plasticware was equilibrated in the chamber for 3 days prior to use. In the anoxia experiments, FaDu cells were plated in poly-L-lysine coated plates (Corning Cat # 356461) to improve attachment.
# [4] = Protein binding by equilibrium dialysis (FBS, culture medium); format: in vitro ADME
# Method: Protein binding of 7a in plasma from NIHIII mice and fetal bovine serum (FBS) assessed
# by equilibrium dialysis using a 12-14KDa cut-off dialysis membrane (HTDialysis, Gales Ferry, CT) as
# Briefly, 100 µL samples of undiluted plasma,
# plasma diluted in PBS, and αMEM with or without FBS containing 7a at 100 μM were dialysed against
# 100 µL PBS or αMEM (pH 7.4) in an incubator (Innova-42, New Brunswick Scientific, US ) at 37°C
# with shaking at 80 rpm for 6 h. Proteins were precipitated with 3 vol of ice-cold MeCN, the
# SiHa and SiHa/POR cells = assay: IC50 in SiHa versus SiHa/POR cultures under anoxia; format: cell-based; settings: 4 h under anoxia, pHe 7.4
# Method: The lack of effect of POR over-expression on the reductive metabolism of the BTO acids in intact cells led us to compare the cytotoxicities of SN30000 (2), 4a, and 7a in SiHa/POR, and the parental line, under anoxia (Figure 6).
# Drug exposure was for 4 h under anoxia, at pHe 7.4, with regrowth under aerobic conditions for 5 days before staining with SRB. Values are means and SEM for the two experiments, each with triplicate cultures at each drug concentration. TEXT PRINTED IN THE PICTURE: Cmpd 2: Ratio 6.75 ± 0.20 | Cmpd 4a: Ratio 3.40 ± 0.22 | Cmpd 7a: Ratio 2.67 ± 0.46
# [5] = Solubility in AlphaMEM + 5% FBS, pH 7.4; settings: culture medium (AlphaMEM + 5% FBS), pH 7.4, plasma or biological fluid, thermodynamic from solid
# [6] = Measured pKa (potentiometric titration)
# [7] = test system: MDCK-II cells with forced expression of BCRP or Pgp; assay: IC50 under anoxia in cells with forced expression of efflux transporters; settings: MDCK-II cell lines under anoxia, preliminary experiments
# Method: expression of BCRP or Pgp.
# Cells were seeded at 300 cells/well in DMEM with 10% FBS in 96 well plates in an
# anaerobic chamber, allowed to attach for 2 h then exposed to drugs for 4 h under anoxia. Cells were
# then washed with fresh medium and grown for 5 days under aerobic conditions before staining with
# SRB. Values are mean ± SEM from 2 separate experiments.
# SiHa cells [8] = assay: Cellular uptake in stirred aerobic single cell suspensions (HPLC, 3H-mannitol correction); settings: for Observed Ci/Ce ratio: SiHa
# Method: In these experiments, cell pellets were collected by centrifugation and ^3H-mannitol was used as a cell-excluded marker to enable correction for the entrapped extracellular medium.
# Log-phase cultures were dissociated with trypsin/EDTA, followed by the addition of the medium with DNAase I (Sigma DN-25) at 100 μg/mL for 5 min at 37 °C to minimize clumping. The cell pellets were collected by centrifugation and resuspended in αMEM with 5% FBS at pH 7.4 or 6.5 to 2 × 10^6 cells/mL. Samples (12 mL) were equilibrated with magnetic stirring at 37 °C under flowing humidified 5% CO2/air or N2 (50–100 mL/min), as previously described [86]. After equilibration for 60 min, the compounds were added in 50 μL of DMSO. The samples (5 mL) were withdrawn 5 and 60 min later, where the cell pellets were then collected by centrifugation and 4 mL of the supernatant was discarded. The pellets were resuspended in the remaining 1 mL, transferred to microcentrifuge tubes containing 7 μL ^3H-mannitol (740 GBq/mmol, American Radiolabeled Chemicals Inc., St. Louis, MO) as an extracellular marker, and then centrifuged (11,000g × 30s). The supernatant was removed and frozen at −80 °C (extracellular samples) and the tubes were centrifuged again, and any remaining medium was carefully removed. Ice-cold MeOH (80 μL) was added to the pellets which were disrupted by pipetting and stored at −80 °C (intracellular samples). When these were thawed for HPLC analysis (Section 4.12), the volume of extracellular water trapped in the pellets was determined by the scintillation counting (PerkinElmer Tri-Carb B2910TR Liquid Scintillation) of 25 μL of each extracellular and intracellular sample in 3 mL of Emulsifier-Safe™ scintillation cocktail (PerkinElmer). The extracellular volume in each intracellular sample was used to correct the intracellular drug concentration as previously described [87].
# The samples were analyzed using an Agilent 1200 HPLC with a diode array absorbance detector and autosampler maintained at 4 °C (Agilent Technologies). The frozen samples were thawed, then centrifuged (11,000g × 5 min), and then extracellular samples were injected directly (typically 20 μL), while for the intracellular samples 30 μL was mixed 1:1 with αMEM and 50 μL was injected. […] All calibration curves were linear (R^2 > 0.999). The column was an Agilent ZORBAX Eclipse (XDB-C18, 5u, 2.1 × 150 mm, Agilent Technologies) with a flow rate of 0.4 mL/min. For SN30000 (2), the mobile phase was a mixture of 80% MeCN/water v/v (A), and a 45 mM formate buffer at a pH 4.5, eluting with a linear gradient of 5–100% A over 18 min. The same method was used for the BTO acids, except for 4a, where the aqueous mobile phase pH was reduced to 3.5.
# Values are mean and SEM for 3 replicates. ND: Not detected.
smiles,measurement,setting,value
"O=C(O)CCc1n[n+]([O-])c2cc3c(cc2[n+]1[O-])CCC3 [Compound 7a, 3-(2-Carboxyethyl)-7,8-dihydro-6H-indeno[5,6-e][1,2,4]triazine 1,4-Dioxide]",E^0′ one-electron reduction potential,[1],"−463 mV and −463 ± 8 [MV^2+, V21^2+] mV"
same,First-order rate constant of radical anion decay,"[2]; anoxia, pH 7",78 ± 4 s⁻¹
same,Second-order rate constant of radical anion decay,"[2]; anoxia, pH 7",3.8 ± 0.7 × 10^7 M^−1 s^−1
same,Second-order rate constant for oxidation of the radical anion by O2,[2]; pH 7.0,5.39 ± 0.40 × 10^6 M^−1 s^−1
same,IC50,"SiHa cells [3]; read-out: Anoxic IC50, SiHa, pHe 6.5, 4 h, anoxic",428 ± 152 µM
same,IC50,"SiHa cells [3]; read-out: Anoxic IC50, SiHa, pHe 7.4, 4 h, anoxic",864 ± 277 µM
same,IC50,"SiHa cells [3]; read-out: Oxic IC50, SiHa, pHe 6.5, 4 h, oxic",1890 ± 308 µM
same,IC50,"SiHa cells [3]; read-out: Oxic IC50, SiHa, pHe 7.4, 4 h, oxic",3720 ± 830 µM
same,TMR (overall TME ratio = oxic IC50 pHe 7.4/anoxic IC50 pHe 6.5),SiHa cells [3],8.7 ± 3.6
same,PCR Anoxic (IC50 at pHe 7.4/IC50 at pHe 6.5),SiHa cells [3]; anoxic,2.02 ± 0.97
same,PCR oxic (IC50 at pHe 7.4/IC50 at pHe 6.5),SiHa cells [3]; oxic,1.97 ± 0.55
same,ACR (anoxic cytotoxicity ratio = oxic IC50/anoxic IC50),SiHa cells [3]; pHe 6.5,4.41 ± 1.73
same,ACR (anoxic cytotoxicity ratio = oxic IC50/anoxic IC50),SiHa cells [3]; pHe 7.4,4.31 ± 1.58
same,TMR (oxic IC50 pHe 7.4/anoxic IC50 pHe 6.5),FaDu cells,>7.9
same,IC50,"FaDu cells; pHe 6.5, 4 h, anoxic, read-out: Anoxic IC50",885 ± 515 µM
same,IC50,"FaDu cells; pHe 6.5, 4 h, oxic, read-out: Oxic IC50",4910 ± 1600 µM
same,IC50,"FaDu cells; pHe 7.4, 4 h, anoxic, read-out: Anoxic IC50",3260 ± 1070 µM
same,IC50,"FaDu cells; pHe 7.4, 4 h, oxic, read-out: Oxic IC50",> 7000 µM
same,PCR oxic (IC50 at pHe 7.4/IC50 at pHe 6.5),FaDu cells; oxic,>1.4
same,ACR (oxic IC50/anoxic IC50),FaDu cells; pHe 6.5,5.55 ± 3.70
same,ACR (oxic IC50/anoxic IC50),FaDu cells; pHe 7.4,> 2
same,Protein binding in culture medium with 5 or 10% FBS,[4]; 100 μM,not detectable
same,"fraction unbound at 6 h, 100 µM","[4]; bovine, fetal bovine serum (FBS), pH 7.4, FBS, read-out: Protein binding (bound) in FBS (converted)",0.38
same,IC50 ratio SiHa / SiHa/POR (fold lower IC50 in POR cell line),SiHa and SiHa/POR cells,2.67 ± 0.46 and 2.7
same,solubility,[5],24.8 mM
same,pKa,[6],4.16
same,Effect of overexpression of BCRP or Pgp efflux transporters on sensitivity,[7],no effect
same,Observed Ci/Ce ratio,"SiHa cells [8]; pHe 6.5, approximate value quoted in text",~ 0.7
same,Observed Ci/Ce ratio,"SiHa cells [8]; pHe 7.4, approximate value quoted in text",~ 0.1
same,Ci ratio (Ci at pHe 6.5/Ci at pHe 7.4),"SiHa cells [8]; aerobic SiHa suspensions, 5 min",3.9 ± 1.3 fold
same,"Ci/Ce, pHe 6.5 Obs 5 min","SiHa cells [8]; aerobic SiHa suspensions, pHe 6.5, 5 min",0.70 ± 0.03
same,"Ci/Ce, pHe 6.5 Obs 60 min","SiHa cells [8]; aerobic SiHa suspensions, pHe 6.5, 60 min",0.75 ± 0.03
same,"Ci/Ce, pHe 7.4 Obs 5 min","SiHa cells [8]; aerobic SiHa suspensions, pHe 7.4, 5 min",0.21 ± 0.08
same,"Ci/Ce, pHe 7.4 Obs 60 min","SiHa cells [8]; aerobic SiHa suspensions, pHe 7.4, 60 min",<0.1
